# Laboratory results published in article PMC5617979, “Comparative Study on Antistaphylococcal Activity of Lipopeptides in Various Culture Media” (Antibiotics, 2017).
# Positions of bridges follow the written chain, without caps; N, C: chain ends. No end group written: not given here.
# Experiments:
# Staphylococcus = details: previously described compounds; cited from earlier work
# Source text: All of the lipopeptides are palmitoylated at N-terminus and contain three or four basic amino acid residues. Moreover, compounds are amidated at C-termini to maximize positive charge. […] Arginine, as a basic amino acid, introduce positive charge; however, it has more hydrogen donor atoms and is more basic (pKa~1 ...
# [1] = tested on: Staphylococcus aureus (five reference strains ATCC 25923, ATCC 6538, ATCC 6538/P, ATCC 9144, ATCC 12598 and five clinical strains); test: MIC assay, broth microdilution; format: cell-based; details: planktonic S. aureus, 5 × 10^5 CFU/mL, 18 h, 37 °C, Figure 1, mean MIC
# Description: Antimicrobial activity was determined against five reference strains: S. aureus ATCC 25923, S. aureus ATCC 6538, S. aureus ATCC 6538/P, S. aureus ATCC 9144, and S. aureus ATCC 12598, which were obtained from the Polish Collection of Microorganisms (Polish Academy of Sciences, Wroclaw), and against five clinical strains of S. aureus, which were provided by the Department of Oral Microbiology, Medical University of Gdańsk (Poland). These strains were also characterized in terms of methicillin resistance. Preliminary identification and detection was conducted on the ChromID MRSA/ChromID S. aureus biplate (bioMérieux) for simultaneous detection of S. aureus and methicillin-resistant S. aureus (MRSA). All tested strains (both reference and clinical S. aureus) were stored in cryo-vials (Roti®-Store, Carl Roth) and recultivated before all microbiological tests. All strains were cultured in three different media: Brain-Heart Infusion Broth (BHI, Biocorp, Warsaw, Poland), Mueller Hinton Broth (MH, Biocorp), and Tryptic-Soy Broth (TSB, Biocorp). Moreover, the stock solutions of lipopeptides were prepared in two different solvents: PBS and an aqueous solution of acetic acid/BSA (0.01% and 0.2% respectively). MIC was determined by broth microdilution method on polystyrene 96-well plates. Bacteria at initial inoculums of 5 × 10^5 CFU/mL were exposed to lipopeptides at concentrations ranging from 0.5 to 256 µg/mL and incubated for 18 h at 37 °C. The MIC value was taken as the lowest concentration of the compound that inhibited the growth of the microorganisms. All assays were performed in triplicate and included the growth and sterility control.
# S. aureus = details: cited from earlier work
# Source text: (§1) It should be noted that conclusions drawn from the in vitro studies are not always consistent with those determined in vivo. Nevertheless, these “not-ideal” conditions may reveal an unexpected activity of new compounds. […] In this case, the MIC values decreased down to sixteenfold in the presence of plasma. The synergistic effect may be connected with complement proteins or clotting factors, as the a ...
# Enterococcus faecalis = details: cited from earlier work
# Source text: as §1
# Pseudomonas aeruginosa = details: cited from earlier work
# Source text: as §1
# Escherichia coli = details: cited from earlier work
# Source text: as §1
Substance,antistaphylococcal activity (Staphylococcus),MIC values in BHI and TSB compared with MH (influence of medium type) [1],also measured
Pal-RRR-NH2,high antistaphylococcal activity,,
Pal-CRKKKC-NH2 (disulfide) [palmitoylated lipopeptide amide with intramolecular disulfide bridge],,slightly more active in MH,
"Pal-CKKKRC-NH2 [Pal-CKKKRC-NH2 (linear), non-cyclized palmitoylated lipopeptide amide with two cysteine residues]",,this dependence was not observed,
Pal-CKKRKC-NH2 (disulfide) [palmitoylated lipopeptide amide with intramolecular disulfide bridge],,slightly more active in MH,
"protegrin-1 (RGGRLCYCRRRFCVCVGR-NH2; disulfide 8-13, 6-15; ends not checked; UniProt P32194 131-148, looked up) [antimicrobial peptide studied by Steinberg et al. (1997)]",,,fold lowering of MIC with peptide prepared in aqueous acetic acid and BSA vs reference CLSI protocol (S. aureus): 5 times; fold lowering of MIC with peptide prepared in aqueous acetic acid and BSA vs reference CLSI protocol (Enterococcus faecalis): 5 times; fold lowering of MIC with peptide prepared in aqueous acetic acid and BSA vs reference CLSI protocol (Pseudomonas aeruginosa): up to 30 times; fold lowering of MIC with peptide prepared in aqueous acetic acid and BSA vs reference CLSI protocol (Escherichia coli): up to 30 times
Pal-KKKK-NH2,high antistaphylococcal activity,,
